According to PMC11255254, “ER-associated VAP27-1 and VAP27-3 proteins functionally link the lipid-binding ORP2A at the ER-chloroplast contact sites” (Nature Communications, 2024):

Target: T1, ORP2A (His-ORP2A; ORP2A-His) (Arabidopsis thaliana, UniProt Q940Y1)
T1 construct: full-length, His6 tag kept (N-terminal in pET16b; also ORP2A-His), E. coli BL21
T1 sequence (Q940Y1 1-721): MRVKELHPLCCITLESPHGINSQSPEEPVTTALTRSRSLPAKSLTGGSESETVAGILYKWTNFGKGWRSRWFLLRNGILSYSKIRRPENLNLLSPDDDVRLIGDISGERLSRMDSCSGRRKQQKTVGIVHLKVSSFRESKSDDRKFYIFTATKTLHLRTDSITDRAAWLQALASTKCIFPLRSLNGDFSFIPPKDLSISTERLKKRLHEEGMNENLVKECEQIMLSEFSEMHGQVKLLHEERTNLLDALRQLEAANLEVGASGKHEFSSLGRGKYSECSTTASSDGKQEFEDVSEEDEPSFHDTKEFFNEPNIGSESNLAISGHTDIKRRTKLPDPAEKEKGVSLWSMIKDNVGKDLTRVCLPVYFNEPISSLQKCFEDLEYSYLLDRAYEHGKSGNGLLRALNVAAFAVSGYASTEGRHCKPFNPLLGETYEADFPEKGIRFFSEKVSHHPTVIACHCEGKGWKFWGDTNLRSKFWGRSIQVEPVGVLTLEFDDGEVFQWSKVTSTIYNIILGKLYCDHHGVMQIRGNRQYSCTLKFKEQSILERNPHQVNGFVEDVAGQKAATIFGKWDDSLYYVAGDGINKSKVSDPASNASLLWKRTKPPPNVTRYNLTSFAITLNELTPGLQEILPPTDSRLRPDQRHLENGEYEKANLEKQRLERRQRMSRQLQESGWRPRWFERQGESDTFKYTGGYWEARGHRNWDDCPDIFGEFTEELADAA
Assay: protein-lipid overlay (fat blot), anti-His immunoblot
Assay type: binding
Conditions: 15 μg sterol spotted on nitrocellulose; overnight incubation in purified protein

SMILES	protein-lipid overlay (fat blot), anti-His immunoblot
CC(C)[C@H](C)CC[C@@H](C)[C@H]1CC[C@H]2[C@@H]3CC=C4C[C@@H](O)CC[C@]4(C)[C@H]3CC[C@]12C [campesterol]	recombinant ORP2A-His shows that the protein interacts with β-sitosterol, stigmasterol and campesterol
CC[C@H](/C=C/[C@@H](C)[C@H]1CC[C@H]2[C@@H]3CC=C4C[C@@H](O)CC[C@]4(C)[C@H]3CC[C@]12C)C(C)C [stigmasterol]	recombinant ORP2A-His shows that the protein interacts with β-sitosterol, stigmasterol and campesterol
CC[C@H](CC[C@@H](C)[C@H]1CC[C@H]2[C@@H]3CC=C4C[C@@H](O)CC[C@]4(C)[C@H]3CC[C@]12C)C(C)C [β-sitosterol]	recombinant ORP2A-His shows that the protein interacts with β-sitosterol, stigmasterol and campesterol
